Reference: patent publication US20250388568A1, “NLRP3 INHIBITORS” (Kodiak Sciences Inc., priority 2022, published 2025)
Like-named read-outs stand apart in the source and are kept apart here.

Tests used:
[1] = test system: IL-1β release in U937 cells after NLRP3 activation; test: IC50 determination of IL-1β release inhibition in U937 cells; format: cell-based; conditions: Homo sapiens, read-out: IL-1β IC50 (nM) U937 cells
Experimental: Example 79: IC50 Determination of IL-1β Release Inhibition in U937 Cells The compounds of the present disclosure were tested for their ability to inhibit the IL-1β release in the U937 cells after NLRP3 activation. U937 cells (U-97 CRL 1593.2) were thawed following ATCC's initial culture procedure. […] The growth medium was composed of RPMI1640 medium (Quality Biological 112-040-101), 10% serum (Corning 35-076-CV), Pen/Strep (GIBCO 15140-122), 10 mM Hepes (Quality Biological 118-089-721), 2 mM Glutamax (GIBCO 35050-061), and 100 μg/mL normocin (Invivogen ant-nr)-Differentiating media was prepared by adding Phorbol 12-myristate 13-acetate (PMA) (AdipoGen AG-CN2-0010-M005) to growth medium. A cell suspension was prepared with differentiating media at 500k cells/ml. With an electronic pipet, 200 ul of cell suspension was added to each well (96w white plate Corning 3903) leaving columns 1 and 2 empty. Plates were left in the biosafety cabinet for 15 min and then placed in incubator for 90 hours. Priming media was prepared with assay medium consisting of RPMI 1640 medium, 10 mM Hepes, 2 mM Glutamax and Pen/Strep plus 1 μg/mL LPS (Invivogen tlrl-3pelps). Differentiating media was manually removed and 80 ul of priming media was added to each well with an electronic pipet. The plates were placed in the incubator for 5 hours. […] DMSO). An hour prior to the end of LPS incubation, a separate 96 deep well plate, Plate B, was prepared with 400 μL of assay media per well, then […] of the stock DMSO solution from Plate A was added to each corresponding well. Plate B was covered to avoid media evaporation. In a 50 mL tube, a solution of nigericin in assay media at 50 uM/mL concentration was prepared. To a new 96 deep well plate, Plate C, 200 μL of this nigericin containing media was dispensed to each well and 1 μL of the test compounds from Plate B to each corresponding well was added. Plate C was covered to avoid media evaporation. After 5 hours of priming, all the media from the LPS treated U937 cells was removed manually. To this plate of primed cells, 80 μL/well test compounds from Plate B (assay media+compound) was added in duplicate columns (5 compounds tested per plate). The plate was placed in an incubator for 30 min. […] The plate was placed back in the incubator for 1 hour. At the end of 1 hour, the supernatant from this test plate was transferred to a new 96 well V bottom polypropylene plate which was frozen immediately at -80° C. The plate was transferred to -20° C. the next day and awaited further determination of cytokine IL-Ip level. The release of IL-1β into the cell media was determined by MSD® Multi-Spot Assay System (V-Plex, IL-1B kit, […]-4). Following the manufacture's protocol and using the Alternate Protocol 3, Dilute-In-Plate protocol specifically, the level of IL-IP in the above collected supernatant plate was measured as electrochemiluminescent signals. Using MSD DISCOVERY WORKBENCH® analysis software, the signals were converted to the concentration of IL-1β in each well. The IC50 values of the compounds were calculated using the Graph Pad Prism software based on the IL-1β concentration determined. The detection range of IL-1β using MSD kit was approximately […] (based on various lots of standards purchased from MSD).

[2] = test system: IL-1β release in THP-1-ASC-GFP cells after NLRP3 activation; test: IC50 determination of IL-1β release inhibition in THP-1-ASC-GFP cells; format: cell-based; conditions: THP1-ASC-GFP, read-out: IL-1β IC50 (nM) THP1 cells
Experimental: Example 78: IC50 Determination of IL-1β Release Inhibition in THP-1-ASC-GFP Cells The compounds were tested for their ability to inhibit the IL-1β release in the THP-1-ASC-GFP cells after NLRP3 activation. THP1-ASC-GFP cells (Invivogen […] thawed following Invivogen's initial culture procedure. […] The growth medium was composed of RPM1640 medium (Gibco 32404-014), 10% heat inactivated (HI) serum (Gibco A3840102), Pen/Strep (Quality Biologics 118-089-721), 10 mM Hepes (Quality Biologics 118-089-721), 2 mM Glutamax (GIBCO 35050-061), 100 μg/mL normocin (Invivogen ant-nr), 100 μg/mL Zeocin (Invivogen ant-zn). The growth medium was freshly prepared once a week and sterile filtered. Assay medium consisted of RPMI 1640 medium, 10 mM Hepes, 2 mM Glutamax and Pen/Strep. To the assay medium, 1 μg/mL LPS (Invivogen tlrl-3pelps) was added. A cell suspension was prepared with assay medium and LPS at 1.25M cells per mL. With an electronic pipet, 80 μl of cell suspension was added to U bottom 96 well polystyrene plates (VWR 10062-902) leaving columns 1 and 2 empty. The plates were placed in the incubator for 4 hours. […] DMSO). An hour prior to the end of LPS incubation, a separate 96 deep well plate, Plate B, was prepared with 400 μL of assay media per well, then 2 μL of the stock DMSO solution from Plate A was added to each corresponding well. Plate B was covered to avoid media evaporation. In a 50 mL tube, a solution of nigericin in assay media at […] concentration was prepared. To a new 96 deep well plate, Plate C, 200 μL of this nigericin containing media was dispensed to each well and […] of the test compounds from Plate A to each corresponding well was added. Plate C was covered to avoid media evaporation. After 4 hours of priming, all the media from the LPS treated THP-1 cells in the initial U bottom plate was removed manually. To this plate of primed cells, 80 μL/well test compounds from Plate B was added in duplicate columns (5 compounds tested per plate). The plate was placed in an incubator for 30 min. […] The plate was placed back in the incubator for 1 hour. At the end of 1 hour, the supernatant from this test plate was transferred to a new 96 well V bottom polypropylene plate which was frozen immediately at -80° C. The plate was transferred to -20° C. the next day and awaiting further determination of cytokine IL-1β level. The release of IL-1β into the cell media was determined by MSD® Multi-Spot Assay System (V-Plex, IL-1B kit, […]-4). Following the manufacture's protocol and using the Alternate Protocol 3, Dilute-In-Plate protocol specifically, the level of IL-1β in the above collected supernatant plate was measured as electrochemiluminescent signals. Using MSD DISCOVERY WORKBENCH® analysis software, the signals were converted to the concentration of IL-1β in each well. The IC50 values of the compounds were calculated using the Graph Pad Prism software based on the […] concentration determined. The detection range of IL-1β using MSD kit was approximately […] (based on various lots of standards purchased from MSD).

[3] = U-937, PMA-differentiated U937 cells, LPS priming 5 h, nigericin, average of at least three experiments
[4] = THP-1-ASC-GFP cells, LPS priming 4 h, nigericin, average of at least three experiments

Structure (SMILES)	IC50 [1, 3]	IC50 [2, 4]	IC50 ([1]; U-937, 5 h)	IC50 ([2]; 4 h)
CC(C)n1nc(S(=N)(=O)NC(=O)Nc2c3c(cc4c2CCC4)CCC3)cc1CN1CCC[C@H]1CO (stereo partly drawn) [Example 21, N-((1,2,3,5,6,7-hexahydro-s-indacen-4-yl)carbamoyl)-5-(((S)-2-(hydroxymethyl)pyrrolidin-1-yl)methyl)-1-isopropyl-1H-pyrazole-3-sulfonimidamide]	< 5 nM	< 5 nM		
Cc1oc(S(=O)(=O)NC(=O)Nc2c3c(c(F)c4c2CCC4)CCC3)cc1CN1CC[C@H](O)C1 [Example 38, (S)—N-((8-fluoro-1,2,3,5,6,7-hexahydro-s-indacen-4-yl)carbamoyl)-4-((3-hydroxypyrrolidin-1-yl)methyl)-5-methylfuran-2-sulfonamide]			50 to 500 nM	5 to 50 nM
CC(C)NCc1coc([S@@](=N)(=O)NC(=O)Nc2c3c(c(F)c4c2CCC4)CCC3)c1 (single isomer, unassigned) [Example 30]	> 500 nM	50 to 500 nM		
O=C(Nc1c2c(cc3c1CCC3)CCC2)NS(=O)(=O)c1cc2c(o1)CCN(CCCO)C2 [Example 74, N-((1,2,3,5,6,7-hexahydro-s-indacen-4-yl)carbamoyl)-5-(3-hydroxypropyl)-4,5,6,7-tetrahydrofuro[3,2-c]pyridine-2-sulfonamide]	5 to 50 nM	5 to 50 nM		
N=S(=O)(NC(=O)Nc1c2c(cc3c1CCC3)CCC2)c1cc(CN2CC(O)C2)co1 (stereo not drawn) [Example 1, N-((1,2,3,5,6,7-hexahydro-s-indacen-4-yl)carbamoyl)-4-((3-hydroxyazetidin-1-yl)methyl)furan-2-sulfonimidamide]	5 to 50 nM	< 5 nM		
Cc1oc(S(=O)(=O)NC(=O)Nc2c3c(c(F)c4c2CCC4)CCC3)cc1CNCC1(O)CCC1 [Example 36, N-((8-fluoro-1,2,3,5,6,7-hexahydro-s-indacen-4-yl)carbamoyl)-4-((((1-hydroxycyclobutyl)methyl)amino)methyl)-5-methylfuran-2-sulfonamide]	50 to 500 nM	5 to 50 nM		
Cc1oc(S(=N)(=O)NC(=O)Nc2c3c(cc4c2CCC4)CCC3)cc1CN1CCC[C@@H]1CO (stereo partly drawn) [Example 7, N-((1,2,3,5,6,7-hexahydro-s-indacen-4-yl)carbamoyl)-4-(((R)-2-(hydroxymethyl)pyrrolidin-1-yl)methyl)-5-methylfuran-2-sulfonimidamide]	< 5 nM	< 5 nM		
Cc1oc(S(=N)(=O)NC(=O)Nc2c3c(cc4c2CCC4)CCC3)cc1CN1CC[C@H](CO)C1 (stereo partly drawn) [Example 6, N-((1,2,3,5,6,7-hexahydro-s-indacen-4-yl)carbamoyl)-4-(((S)-3-(hydroxymethyl)pyrrolidin-1-yl)methyl)-5-methylfuran-2-sulfonimidamide]	5 to 50 nM	< 5 nM		
Cc1oc([S@@](=N)(=O)NC(=O)Nc2c3c(c(F)c4c2CCC4)CCC3)cc1CNC(C)C (single isomer, unassigned) [Example 28]	50 to 500 nM	50 to 500 nM		
N=S(=O)(NC(=O)Nc1c2c(cc3c1CCC3)CCC2)c1cc(C(=O)N2CC3(CC(O)C3)C2)co1 (stereo not drawn) [Example 3, N-((1,2,3,5,6,7-hexahydro-s-indacen-4-yl)carbamoyl)-4-(6-hydroxy-2-azaspiro[3.3]heptane-2-carbonyl)furan-2-sulfonimidamide]	50 to 500 nM			

Further lines, with some results ahead:

IC50 [1, 3]	IC50 [2, 4]	Structure (SMILES)	IC50 ([1]; U-937, 5 h)	IC50 ([2]; 4 h)
50 to 500 nM	50 to 500 nM	Cn1nc(S(=O)(=O)NC(=O)Nc2c3c(c(F)c4c2CCC4)CCC3)cc1CN1CC[C@@H](O)C1 [Example 61, (R)-N-((8-fluoro-1,2,3,5,6,7-hexahydro-s-indacen-4-yl)carbamoyl)-5-((3-hydroxypyrrolidin-1-yl)methyl)-1-methyl-1H-pyrazole-3-sulfonamide]		
5 to 50 nM	< 5 nM	Cc1cc(S(=O)(=O)NC(=O)Nc2c3c(c(F)c4c2CCC4)CCC3)oc1CN1CC[C@H](O)C1 [Example 51, (S)-N-((8-fluoro-1,2,3,5,6,7-hexahydro-s-indacen-4-yl)carbamoyl)-5-((3-hydroxypyrrolidin-1-yl)methyl)-4-methylfuran-2-sulfonamide]		
50 to 500 nM	5 to 50 nM	Cc1oc(S(=O)(=O)NC(=O)Nc2c3c(c(F)c4c2CCC4)CCC3)cc1CN1CC[C@@H](O)C1 [Example 39, (R)-N-((8-fluoro-1,2,3,5,6,7-hexahydro-s-indacen-4-yl)carbamoyl)-4-((3-hydroxypyrrolidin-1-yl)methyl)-5-methylfuran-2-sulfonamide]		
< 5 nM		Cc1cc(S(=O)(=O)NC(=O)Nc2c3c(c(F)c4c2CCC4)CCC3)oc1CN1C[C@@H](O)[C@H](F)C1 [Example 54, N-((8-fluoro-1,2,3,5,6,7-hexahydro-s-indacen-4-yl)carbamoyl)-5-(((3R,4R)-3-fluoro-4-hydroxypyrrolidin-1-yl)methyl)-4-methylfuran-2-sulfonamide]		
5 to 50 nM		Cc1cc(S(=O)(=O)NC(=O)Nc2c3c(c(F)c4c2CCC4)CCC3)oc1CN1CC[C@@H](O)C1 [Example 52, (R)-N-((8-fluoro-1,2,3,5,6,7-hexahydro-s-indacen-4-yl)carbamoyl)-5-((3-hydroxypyrrolidin-1-yl)methyl)-4-methylfuran-2-sulfonamide]		
